# Patent publication US20130303768A1, “METHOD AND SUBSTANCES FOR PREPARATION OF N-SUBSTITUTED PYRIDINIUM COMPOUNDS” (ROCHE DIAGNOSTICS OPERATIONS, INC., priority 2011, published 2013)
# Key:
# GlucDH mut 2 = assay: Enzymatic reduction of Acetyl-cNAD by GlucDH mut 2 with glucose; format: biochemical; settings: 25° C., Tris-buffer pH 8.5, glucose, UV/VIS spectra after 30 min
# Protocol: Acetyl-cNADH and for comparison cNAD, cNADP were reduced by using GlucDH mut 2 (WO2010/094632) using the following conditions:
# A Dilution buffer (NaCl 0.2 mol/l; Tris 0.1 mol/l; pH 8.5) was prepared as follows: 11.7 g NaCl and 12.1 g Tris (=[…]) were dissolved in 900 ml bidest. water and the pH was adjusted to pH 8.5 by addition of HCL 1N and filled to 1.00 l with bidest. Water.
# Glucose-solution: 2.00 g D(+)-Glucose-Monohydrate were dissolved in 10.0 ml bidest. water. The solution is ready for usage after 2 h at room temperature.
# GlucDH2-stock-solution: 10.0 mg of the enzyme (Lyo) were dissolved in 1.00 ml Tris-buffer.
# Reduction of Acetyl-cNAD-solution (15 mmol/l): 9.90 mg Acetyl-cNAD (Mw=659.47 g/mol) were dissolved in 1.00 ml bidest. water.
# 100 μl GlucDH2-stock-solution were dissolved in 0.90 ml dilution buffer (dilution factor=10).
# 1. The tempered (25° C.) reagent solutions were pipetted into a 1 cm plastic cuvette as follows:
# (§1) After mixing and tempering to 25° C., the reaction was started by addition of 0.05 ml the above mentioned corresponding GlucDH2-solutions. An UV/VIS spectra was recorded after 30 min.
# [1] = UV/VIS absorption spectrum after enzymatic reduction; format: physicochemical; settings: FIG. 1, reduced form
# Protocol: as §1
# This is a significant advantage for redox-based assays, since it allows to reduce or avoid the interference from auto-fluorescent compounds comprised in (biological) samples
absorption maximum [1],Compound,coenzyme function for a dehydrogenase (GlucDH mut 2)
,CC(=O)c1ccc[n+]([C@@H]2C[C@H](COP(=O)([O-])OP(=O)(O)OC[C@H]3O[C@@H](n4cnc5c(N)ncnc54)[C@H](O)[C@@H]3O)[C@@H](O)[C@H]2O)c1 [Acetyl-cNAD],serves as a coenzyme for a dehyrogenase
about 380 nm,Acetyl-cNADH,
